Measurements from patent US9278958B2, “Anti-cancer compounds” (KATHOLIEKE UNIVERSITEIT LEUVEN, priority 2012, dated 2016).
Read-outs that look alike come from different tables or passages of the source.

Key:
[1] = tested on: DU145 (UZ) prostate cancer cells; experiment: Cytostatic assay, DU145 (UZ); format: cell-based; conditions: Homo sapiens, DU-145; Table 4
How it was run: (§1)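 Incubation of 5-7.5×10^4 cells per well with compound ran for 48–96 h (depending on the line) at 37° C; cells were then counted with a Coulter instrument.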

[2] = tested on: protein synthesis in CEM cells; experiment: Antimetabolic activity assay, [4,5-3H]leucine incorporation (protein synthesis), CEM; format: cell-based; conditions: Homo sapiens, CCRF-CEM, incorporation into TCA-insoluble material
Procedure: (§2) Radiolabeled precursors of DNA synthesis ([^3H-methyl]dThd), RNA synthesis ([5-^3H]Urd), and protein synthesis ([4,5-^3H]leu) were added to 10^5 CEM cell cultures in the 200 μl-wells of a microtiter plate at 1 μCi for each precursor in the presence of varying concentrations of the test compounds (5-fold dilution series). The cells were allowed to proliferate for 20 hrs at 37° C. in a humidified, CO2-controlled atmosphere. At the end of the incubation period, the contents of the wells were brought onto 25-mm glass fiber filters and further processed for measurement of acid-insoluble radioactivity.

[3] = tested on: HT29 colorectal carcinoma cells; experiment: Cytostatic assay, HT29; format: cell-based; conditions: Homo sapiens, HT-29; Table 3
How it was run: as §1

[4] = tested on: MCF-7 mammary carcinoma cells; experiment: Cytostatic assay, MCF-7; format: cell-based; conditions: Homo sapiens, MCF7; Table 3
How it was run: as §1

HepG2C3A hepatoma cells = experiment: Cytostatic assay, HepG2C3A; format: cell-based; conditions: Homo sapiens, HepG2/C3A; Table 4
How it was run: as §1

[5] = tested on: U937, human monocytic cells; experiment: Cytostatic assay, U937; format: cell-based; conditions: U-937, Table 2
How it was run: as §1

[6] = tested on: PC-3 (UZ) prostate cancer cells; experiment: Cytostatic assay, PC-3 (UZ); format: cell-based; conditions: Table 4
How it was run: as §1

[7] = tested on: LNCaP (UZ) prostate cancer cells; experiment: Cytostatic assay, LNCaP (UZ); format: cell-based; conditions: Homo sapiens, Table 4
How it was run: as §1

[8] = tested on: FM3A mammary carcinoma cells; experiment: Cytostatic assay, FM3A; format: cell-based, murine; conditions: Mus musculus, Table 3
How it was run: as §1

[9] = tested on: RNA synthesis in Raji cells; experiment: Antimetabolic activity assay, [5-3H]uridine incorporation (RNA synthesis), Raji; format: cell-based; conditions: Homo sapiens, incorporation into TCA-insoluble material
Procedure: [The procedure below names another cell line; the source lists this cell line under the same test.] as §2

[10] = tested on: Raji, human B-lymphoma cells; experiment: Cytostatic assay, Raji; format: cell-based; conditions: Table 2
How it was run: as §1

MT-2 cells = experiment: Cytostatic assay, MT-2; format: cell-based; conditions: Homo sapiens, MT2; Table 2
How it was run: as §1

[11] = tested on: RNA synthesis in CEM cells; experiment: Antimetabolic activity assay, [5-3H]uridine incorporation (RNA synthesis), CEM; format: cell-based; conditions: Homo sapiens, CCRF-CEM, incorporation into TCA-insoluble material
Procedure: as §2

[12] = tested on: 22Rv1 (UZ) prostate cancer cells; experiment: Cytostatic assay, 22Rv1 (UZ); format: cell-based; conditions: Homo sapiens, Table 4
How it was run: as §1

U87 glioma cells = experiment: Cytostatic assay, U87; format: cell-based; conditions: Homo sapiens, U-87 MG; Table 3
How it was run: as §1

[13] = tested on: 293T embryonic kidney cells; experiment: Cytostatic assay, 293T; format: cell-based; conditions: Homo sapiens, HEK-293T; Table 3
How it was run: as §1

MT-4 cells = experiment: Cytostatic assay, MT-4; format: cell-based; conditions: Homo sapiens, MT4; Table 2
How it was run: as §1

Molt4/C8 cells = experiment: Cytostatic assay, Molt4/C8; format: cell-based; conditions: Table 2
How it was run: as §1

Huh-7 hepatoma cells = experiment: Cytostatic assay, Huh-7; format: cell-based; conditions: Homo sapiens, Table 4
How it was run: as §1

PLC/PRF/5 hepatoma cells = experiment: Cytostatic assay, PLC/PRF/5; format: cell-based; conditions: Homo sapiens, Table 4
How it was run: as §1

L1210 cells = experiment: Cytostatic assay, L1210; format: cell-based; conditions: Mus musculus, Table 2
How it was run: as §1

[14] = tested on: PC3 (rega) prostate cancer cells; experiment: Cytostatic assay, PC3 (rega); format: cell-based; conditions: Table 4
How it was run: as §1

[15] = tested on: OST TK- osteosarcoma cells; experiment: Cytostatic assay, OST TK-; format: cell-based; conditions: Homo sapiens; Table 3
How it was run: as §1

[16] = tested on: HL60, human leukemia cells; experiment: Cytostatic assay, HL-60; format: cell-based; conditions: Table 2
How it was run: as §1

Sup T1 cells = experiment: Cytostatic assay, Sup T1; format: cell-based; conditions: Homo sapiens, Table 2, read-out: Cytostatic activity (μM) Sup T 1
How it was run: as §1

CEM cells = experiment: Cytostatic assay, CEM; format: cell-based; conditions: Homo sapiens, CCRF-CEM
How it was run: as §1

HUT-78 cells = experiment: Cytostatic assay, HUT-78; format: cell-based; conditions: Homo sapiens, HuT78; Table 2
How it was run: as §1

[17] = tested on: DNA synthesis in CEM cells; experiment: Antimetabolic activity assay, [CH3-3H]dThd incorporation (DNA synthesis), CEM; format: cell-based; conditions: Homo sapiens, CCRF-CEM, incorporation into TCA-insoluble material
Procedure: as §2

[18] = tested on: Caki-2 kidney carcinoma cells; experiment: Cytostatic assay, Caki-2; format: cell-based; conditions: Homo sapiens, Table 3
How it was run: as §1

C8166 cells = experiment: Cytostatic assay, C8166; format: cell-based; conditions: Homo sapiens, Table 2
How it was run: as §1

[19] = tested on: DNA synthesis in Raji cells; experiment: Antimetabolic activity assay, [CH3-3H]dThd incorporation (DNA synthesis), Raji; format: cell-based; conditions: Homo sapiens, incorporation into TCA-insoluble material
Procedure: [The procedure below names another cell line; the source lists this cell line under the same test.] as §2

[20] = tested on: THP-1, human monocytic cells; experiment: Cytostatic assay, THP-1; format: cell-based; conditions: Table 2
How it was run: as §1

[21] = tested on: HEL embryonic lung fibroblast cells; experiment: Cytostatic assay, HEL; format: cell-based; conditions: Homo sapiens, Table 3
How it was run: as §1

[22] = tested on: PNT1A (UZ) prostate cells; experiment: Cytostatic assay, PNT1A (UZ); format: cell-based; conditions: Homo sapiens, Table 4
How it was run: as §1

[23] = tested on: HeLa cervix carcinoma cells; experiment: Cytostatic assay, HeLa; format: cell-based, human; conditions: Homo sapiens; Table 3; read-out: Cytostatic activity (μM) Hela
How it was run: as §1

BPH-1 (UZ) = experiment: Cytostatic assay, BPH-1 (UZ); format: cell-based; conditions: Homo sapiens, Table 4
How it was run: as §1

[24] = tested on: Caki-1 kidney carcinoma cells; experiment: Cytostatic assay, Caki-1; format: cell-based; conditions: Homo sapiens, Table 3
How it was run: as §1

[25] = tested on: BAEC aortic endothelial cells; experiment: Cytostatic assay, BAEC; format: cell-based, bovine; conditions: Bos taurus, Table 3
How it was run: as §1

[26] = tested on: protein synthesis in Raji cells; experiment: Antimetabolic activity assay, [4,5-3H]leucine incorporation (protein synthesis), Raji; format: cell-based; conditions: Homo sapiens, incorporation into TCA-insoluble material
Procedure: [The procedure below names another cell line; the source lists this cell line under the same test.] as §2

[27] = Table 1a, read-out: IC50 μM (CEM)
[28] = Table 2, read-out: Cytostatic activity (μM) CEM

Row | SMILES | IC50 [1] [µM] | IC50 [2] [µM] | IC50 [3] [µM] | IC50 [4] [µM] | IC50 (HepG2C3A hepatoma cells) [µM] | IC50 [5] [µM] | IC50 [6] [µM] | IC50 [7] [µM] | IC50 [8] [µM] | IC50 [9] [µM] | IC50 [10] [µM] | IC50 (MT-2 cells) [µM] | IC50 [11] [µM] | IC50 [12] [µM] | IC50 (U87 glioma cells) [µM] | IC50 [13] [µM] | IC50 (MT-4 cells) [µM] | IC50 (Molt4/C8 cells) [µM] | IC50 (Huh-7 hepatoma cells) [µM] | IC50 (PLC/PRF/5 hepatoma cells) [µM] | also measured
1 | CCOC(=O)c1cc(-c2ccc(OC)cc2)sc1N [TR525, 2-Amino-5-(4-methoxy-phenyl)-thiophene-3-carboxylic acid ethyl ester] | 41 ± 24 | 6.2 ± 7.6 | 93 ± 11 | 81 ± 4.9 | > 100 | 115 ± 19 | 20 ± 3.5 | 2.3 ± 0.071 | 49 ± 6 | 82 ± 26 | > 100 | 52 ± 5.7 | 12 ± 5 | 16 ± 5.5 | 90 ± 14 | > 100 | > 100 | 18 ± 2.1 | > 100 | > 100 | IC50 (L1210 cells): 44 ± 3 µM; IC50 [14]: 13 ± 9.6 µM; IC50 [15]: 79 ± 2.8 µM; IC50 [16]: 62 ± 9.9 µM; IC50 (Sup T1 cells): 86 ± 7.1 µM; IC50 (CEM cells; [27]): 40 µM; IC50 (CEM cells; [28]): 40 ± 1 µM; IC50 (HUT-78 cells): 117 ± 21 µM; IC50 [17]: 15 ± 3 µM; IC50 [18]: 159 ± 19 µM; IC50 (C8166 cells): 102 ± 16 µM; IC50 [19]: ≥ 100 µM; IC50 [20]: 102 ± 2.8 µM; IC50 [21]: 43 ± 9.9 µM; IC50 [22]: 42 ± 5.7 µM; IC50 [23]: 39 ± 4 µM; IC50 (BPH-1 (UZ)): 36 ± 1.4 µM; IC50 [24]: 83 ± 36 µM; IC50 [25]: 74 ± 26 µM; IC50 [26]: ≥ 100 µM
2 | CCOC(=O)c1cc(CCc2ccccc2OC)sc1N [TR542, 2-Amino-5-[2-(2-methoxy-phenyl)-ethyl]-thiophene-3-carboxylic acid ethyl ester] | 34 ± 7.1 | 23 ± 14 | > 100 | 60 ± 0.7 | 30 ± 0.71 | 80 ± 5.7 | 8.5 ± 3.5 | 3.8 ± 2.9 | 53 ± 7 | ≥ 100 | 55 ± 12 | 79 ± 17 | 39 ± 32 | 33 ± 0.71 | > 100 | > 100 | 41 ± 5.7 | 6.8 | 28 ± 17 | 39 ± 5.7 | IC50 (L1210 cells): 40 µM; IC50 [14]: 8.6 ± 3.4 µM; IC50 [15]: 41 ± 0.71 µM; IC50 [16]: 11 ± 2.2 µM; IC50 (Sup T1 cells): 23 ± 2.1 µM; IC50 (CEM cells; [28]): 20 ± 4 µM; IC50 (HUT-78 cells): 107 ± 70 µM; IC50 [17]: 68 ± 14 µM; IC50 [18]: 16 ± 10 µM; IC50 (C8166 cells): 143 ± 32 µM; IC50 [19]: ≥ 100 µM; IC50 [20]: 31 ± 13 µM; IC50 [21]: 43 ± 4.9 µM; IC50 [22]: 45 µM; IC50 [23]: 45 ± 6 µM; IC50 (BPH-1 (UZ)): 74 ± 4.2 µM; IC50 [24]: 62 ± 12 µM; IC50 [25]: > 100 µM; IC50 [26]: 94 ± 7 µM
3 | COc1ccccc1CCc1cc(C#N)c(N)s1 [TR585, 2-Amino-5-[2-(2-methoxy-phenyl)-ethyl]-thiophene-3-carbonitrile] | 6.4 ± 1.8 | 11 ± 8 | 8.9 ± 0.92 | 5.42 ± 0.69 | 7.2 ± 4 | 3.4 ± 2.8 | 2.6 ± 0.64 | 2.7 ± 0.95 | 25 ± 0.71 | ≥ 100 | 13 ± 3.5 | 4.75 ± 0.08 | ≥ 100 | 9.4 ± 5.8 | 10 ± 0.78 | 10 ± 0.071 | 8.1 ± 0.78 | 2 ± 0.2 | 8.3 ± 0.78 | 6.7 ± 0.64 | IC50 (L1210 cells): 15 ± 4 µM; IC50 [14]: 1.7 ± 0.35 µM; IC50 [15]: 3.96 ± 1.56 µM; IC50 [16]: 3.5 ± 0.57 µM; IC50 (Sup T1 cells): 4.7 ± 0.38 µM; IC50 (CEM cells; [27]): 8.3 µM; IC50 (CEM cells; [28]): 8.3 ± 2.4 µM; IC50 (HUT-78 cells): 7.1 ± 1.3 µM; IC50 [17]: > 100 µM; IC50 [18]: 4.8 ± 4.5 µM; IC50 (C8166 cells): 16 ± 6.5 µM; IC50 [19]: ≥ 100 µM; IC50 [20]: 3.8 ± 0.6 µM; IC50 [21]: 7.2 ± 0.49 µM; IC50 [22]: 8 ± 0.42 µM; IC50 [23]: 8.3 ± 1.5 µM; IC50 (BPH-1 (UZ)): 7 ± 0.42 µM; IC50 [24]: 4.6 ± 1.3 µM; IC50 [25]: 9.7 ± 1.8 µM; IC50 [26]: ≥ 100 µM
